What is called Kd is the equilibrium constant for the complex coming apart. Lower therefore signals a tighter complex. What is called MIC50 is an inhibitory concentration at the 50% level, which refers to growth in some studies and to a panel of isolates in others. A higher MIC50 goes with lower susceptibility.

15 compounds from patent US20240424113A1, “CONJUGATES COMPRISING ANTIFUNGALS AND HEAT SHOCK PROTEIN 90 (HSP90) INHIBITORS AND METHODS OF USE THEREOF” (Bright Angel Therapeutics Inc., priority 2021, published 2024) can be followed below.

SMILES strings stand for the structures. In brackets after ≈: the same amount, converted by molar mass.

In experiment [1] the target is Hsp90 Nuclear Binding Domain (NBD) (Aspergillus fumigatus, UniProt P40292). As to the kind of experiment: Surface Plasmon Resonance (SPR) binding, A. fumigatus Hsp90 NBD. The settings on record: biotinylated Hsp90 NBD on streptavidin chip, 25° C., 1:1 binding model; NB undefined. As to the method:
(§1) Surface Plasmon Resonance (SPR) Experiments. SPR experiments were performed on a Biacore S200 instrument at 25° C. Biotinylated Hsp90 Nuclear Binding Domain (NBD) was diluted to 40 μg/mL and immobilized on a streptavidin chip (Sensor Chip SA, GE Healthcare) at a density of 2000-2500 response units (RU) on the biosensor surface.
(§2) Recombinant Hsp90 NBDs were expressed and purified as previously described (Whitesell et al., Nat Commun 10, 402 (2019)) with the following modification; Hsp90 NBD expression constructs were modified to encode a C-terminal AviTag for site-specific on-column biotinylation with a BirA biotin-ligase kit (Avidity LLC; BirA-500). Stock protein solutions in 50% glycerol were stored at −20° C. until dilution into relevant buffers. Binding experiments were done in HBS-P (0.01 M HEPES, pH 7.4, 0.15 M NaCl, 0.005% v/v surfactant P20, GE Healthcare) with 2% DMSO at flow rate of 40 μL/min. Test compounds (dilution series) were injected with a 60 s association time and 600 s dissociation time. Resulting sensorgrams were analyzed with a fit to a 1:1 binding model, using BIA evaluation software.

Experiment [2] deals with Hsp90 Nuclear Binding Domain (NBD) (Candida albicans (strain SC5314 / ATCC MYA-2876) (Yeast), UniProt P46598). As to the kind of experiment: Surface Plasmon Resonance (SPR) binding, C. albicans Hsp90 NBD. As to conditions: biotinylated Hsp90 NBD on streptavidin chip, 25° C., 1:1 binding model. As for the experimental part:
as §1, §2

The next experiment has as its system CaCl2. As to the kind of experiment: Antifungal sensitivity testing (broth microdilution MIC). The experiment is classed as cell-based. As to conditions: Table 4; 96-well broth microdilution. As for the experimental part:
Antifungal Sensitivity Testing. Minimum inhibitory concentrations (MICs) were determined in flat bottom, 96-well plate format using a modified broth microdilution protocol as previously described (Singh et al., PLoS Pathog. 5, e1000532 (2009); LaFayette et al., PLoS Pathog. 6, 79-80 (2010)). Compounds were formulated in dimethyl sulfoxide (DMSO, Sigma-Aldrich Co.); fluconazole was dissolved in sterile ddH2O. Each compound was tested in duplicate in at least two independent experiments. To test for fungicidal activity, cultures from MIC plates were spotted on YPD agar plates using a spotter (Frogger, V&P Scientific, Inc.). Plates were photographed after 24 h of incubation at 30° C.
(Broth dilution looks for growth in wells or tubes with falling amounts of substance.)

Hsp90 Nuclear Binding Domain (NBD) (Candida albicans (strain SC5314 / ATCC MYA-2876) (Yeast), UniProt P46598), sequence (P46598 1-218 limits assumed): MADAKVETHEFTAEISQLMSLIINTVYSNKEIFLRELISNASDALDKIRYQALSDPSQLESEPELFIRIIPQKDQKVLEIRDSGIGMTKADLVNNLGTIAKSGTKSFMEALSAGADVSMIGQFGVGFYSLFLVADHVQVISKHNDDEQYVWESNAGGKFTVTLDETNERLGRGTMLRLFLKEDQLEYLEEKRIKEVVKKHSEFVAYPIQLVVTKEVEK
Hsp90 Nuclear Binding Domain (NBD) (Aspergillus fumigatus, UniProt P40292), sequence (P40292 whole entry, looked up, the tested form may be a part): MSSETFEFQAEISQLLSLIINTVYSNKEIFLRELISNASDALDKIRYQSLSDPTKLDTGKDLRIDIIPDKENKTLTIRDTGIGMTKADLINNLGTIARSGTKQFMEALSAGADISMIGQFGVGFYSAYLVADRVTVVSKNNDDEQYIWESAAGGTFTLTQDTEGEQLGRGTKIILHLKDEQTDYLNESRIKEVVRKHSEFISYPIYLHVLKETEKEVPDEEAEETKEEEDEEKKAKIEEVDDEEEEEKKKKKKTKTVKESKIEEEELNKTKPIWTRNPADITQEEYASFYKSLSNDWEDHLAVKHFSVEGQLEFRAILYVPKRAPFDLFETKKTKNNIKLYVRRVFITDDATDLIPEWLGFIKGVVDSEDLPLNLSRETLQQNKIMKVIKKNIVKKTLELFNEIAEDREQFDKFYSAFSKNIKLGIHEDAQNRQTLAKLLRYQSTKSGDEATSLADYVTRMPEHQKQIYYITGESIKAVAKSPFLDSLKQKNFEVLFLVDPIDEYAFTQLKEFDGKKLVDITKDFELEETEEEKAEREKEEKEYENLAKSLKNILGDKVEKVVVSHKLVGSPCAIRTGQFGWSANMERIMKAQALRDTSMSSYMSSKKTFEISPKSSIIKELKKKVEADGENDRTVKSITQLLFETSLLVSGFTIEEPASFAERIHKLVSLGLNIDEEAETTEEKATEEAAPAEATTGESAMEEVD

In the case of `Nc1nc2sc(C(=O)NC3CCN(CCC(O)(Cn4cncn4)c4ccc(F)cc4F)CC3)cc2n(-c2ccc3c(c2)N(c2ccccc2)CCO3)c1=O` (stereo not drawn) [Compound I-28, 3-amino-N-(1-(3-(2,4-difluorophenyl)-3-hydroxy-4-(1H-1,2,4-triazol-1-yl)butyl)piperidin-4-yl)-2-oxo-1-(4-phenyl-3,4-dihydro-2H-benzo[b][1,4]oxazin-6-yl)-1,2-dihydrothieno[2,3-b]pyrazine-6-carboxamide], the figures for the Kd in experiment [1] and in experiment [2] were 159 nM and 13.3 nM, respectively. The compound further yielded an MIC50 with CaCl2 of 6 µM (≈ 4.52 µg/mL).
For `Nc1nc2scc(C(=O)NC3CCN(C[C@](O)(Cn4cncn4)c4ccc(F)cc4F)CC3)c2n(-c2ccc3c(c2)N(c2ccccc2)CCO3)c1=O` [Compound I-35, (S)-3-amino-N-(1-(2-(2,4-difluorophenyl)-2-hydroxy-3-(1H-1,2,4-triazol-1-yl)propyl)piperidin-4-yl)-2-oxo-1-(4-phenyl-3,4-dihydro-2H-benzo[b][1,4]oxazin-6-yl)-1,2-dihydrothieno[2,3-b]pyrazine-7-carboxamide], in that order: 1840 nM, 1950 nM and 25 µM (≈ 18.5 µg/mL).
For `Nc1nc2sc(-c3cn(C4CCN(CC(O)(Cn5cncn5)c5ccc(F)cc5F)CC4)nn3)cc2n(-c2ccc3c(c2)N(c2ccccc2)CCO3)c1=O` (stereo not drawn) [Compound I-51, 3-amino-6-(1-(1-(2-(2,4-difluorophenyl)-2-hydroxy-3-(1H-1,2,4-triazol-1-yl)propyl)piperidin-4-yl)-1H-1,2,3-triazol-4-yl)-1-(4-phenyl-3,4-dihydro-2H-benzo[b][1,4]oxazin-6-yl)thieno[2,3-b]pyrazin-2(1H)-one], in that order: 14.6 nM, 3 nM and 1 µM (≈ 0.764 µg/mL).
For `Nc1nc2sc(-c3nc(C(=O)NCC(O)(Cn4cncn4)c4ccc(F)cc4F)no3)cc2n(-c2ccc3c(c2)N(c2ccccc2)CCO3)c1=O` (stereo not drawn) [Compound I-57, 5-(3-amino-2-oxo-1-(4-phenyl-3,4-dihydro-2H-benzo[b][1,4]oxazin-6-yl)-1,2-dihydrothieno[2,3-b]pyrazin-6-yl)-N-(2-(2,4-difluorophenyl)-2-hydroxy-3-(1H-1,2,4-triazol-1-yl)propyl)-1,2,4-oxadiazole-3-carboxamide], the Kd in experiment [1] amounted to 46.9 nM; in experiment [2] it was 32.1 nM. This compound also came in with an MIC50 in the experiment with CaCl2 of 20 µM (≈ 14.5 µg/mL).
`Nc1nc2sc(CNC3CCN(C[C@](O)(Cn4cncn4)c4ccc(F)cc4F)CC3)cc2n(-c2ccc3c(c2)N(c2ccccc2)CCO3)c1=O` [Compound I-63, (S)-3-amino-6-(((1-(2-(2,4-difluorophenyl)-2-hydroxy-3-(1H-1,2,4-triazol-1-yl)propyl)piperidin-4-yl)amino)methyl)-1-(4-phenyl-3,4-dihydro-2H-benzo[b][1,4]oxazin-6-yl)thieno[2,3-b]pyrazin-2(1H)-one]: the figures for the Kd in experiment [1] and in experiment [2] were 591 nM and 377 nM, respectively. In the experiment on CaCl2, this compound yielded an MIC50 of 9 µM (≈ 6.53 µg/mL).
For `Nc1nc2sc(CNC3CN(CC(O)(Cn4cncn4)c4ccc(F)cc4F)C3)cc2n(-c2ccc3c(c2)N(c2ccccc2)CCO3)c1=O` (stereo not drawn) [Compound I-66, 3-amino-6-(((1-(2-(2,4-difluorophenyl)-2-hydroxy-3-(1H-1,2,4-triazol-1-yl)propyl)azetidin-3-yl)amino)methyl)-1-(4-phenyl-3,4-dihydro-2H-benzo[b][1,4]oxazin-6-yl)thieno[2,3-b]pyrazin-2(1H)-one], in that order: 1380 nM, 1060 nM and 22.5 µM (≈ 15.7 µg/mL).
For `Nc1nc2sc(CN3CCN(CC(O)(Cn4cncn4)c4ccc(F)cc4F)CC3)cc2n(-c2ccc3c(c2)N(c2ccccc2)CCO3)c1=O` (stereo not drawn) [Compound I-68, 3-amino-6-((4-(2-(2,4-difluorophenyl)-2-hydroxy-3-(1H-1,2,4-triazol-1-yl)propyl)piperazin-1-yl)methyl)-1-(4-phenyl-3,4-dihydro-2H-benzo[b][1,4]oxazin-6-yl)thieno[2,3-b]pyrazin-2(1H)-one], in that order: 545 nM, 417 nM and 0.75 µM (≈ 0.534 µg/mL).
Take `Nc1nc2sc(CN[C@H]3CCN(CC(O)(Cn4cncn4)c4ccc(F)cc4F)C3)cc2n(-c2ccc3c(c2)N(c2ccccc2)CCO3)c1=O` (stereo partly drawn) [Compound I-71, 3-amino-6-((((3S)-1-(2-(2,4-difluorophenyl)-2-hydroxy-3-(1H-1,2,4-triazol-1-yl)propyl)pyrrolidin-3-yl)amino)methyl)-1-(4-phenyl-3,4-dihydro-2H-benzo[b][1,4]oxazin-6-yl)thieno[2,3-b]pyrazin-2(1H)-one]: the dissociation constant Kd in experiment [1] worked out at 1260 nM; in experiment [2], 865 nM. The compound also returned an MIC50 in the experiment on CaCl2 of 6.25 µM (≈ 4.45 µg/mL).
For `Nc1nc2sc(CNCCC(O)(Cn3cncn3)c3ccc(F)cc3F)cc2n(-c2ccc3c(c2)N(c2ccccc2)CCO3)c1=O` (stereo not drawn) [Compound I-74, 3-amino-6-(((3-(2,4-difluorophenyl)-3-hydroxy-4-(1H-1,2,4-triazol-1-yl)butyl)amino)methyl)-1-(4-phenyl-3,4-dihydro-2H-benzo[b][1,4]oxazin-6-yl)thieno[2,3-b]pyrazin-2(1H)-one], in that order: 853 nM, 429 nM and 12 µM (≈ 7.88 µg/mL).
Consider `Nc1nc2sc(CN[C@@H]3CCCN(CC(O)(Cn4cncn4)c4ccc(F)cc4F)C3)cc2n(-c2ccc3c(c2)N(c2ccccc2)CCO3)c1=O` (stereo partly drawn) [Compound I-75, 3-amino-6-((((3R)-1-(2-(2,4-difluorophenyl)-2-hydroxy-3-(1H-1,2,4-triazol-1-yl)propyl)piperidin-3-yl)amino)methyl)-1-(4-phenyl-3,4-dihydro-2H-benzo[b][1,4]oxazin-6-yl)thieno[2,3-b]pyrazin-2(1H)-one], for which the Kd was 340 nM in experiment [1] and 233 nM in experiment [2]. Also, in the experiment with CaCl2, the MIC50 is 4 µM (≈ 2.9 µg/mL).
For `Nc1nc2sc(CN[C@@H]3CCN(CC(O)(Cn4cncn4)c4ccc(F)cc4F)C3)cc2n(-c2ccc3c(c2)N(c2ccccc2)CCO3)c1=O` (stereo partly drawn) [Compound I-77, 3-amino-6-((((3R)-1-(2-(2,4-difluorophenyl)-2-hydroxy-3-(1H-1,2,4-triazol-1-yl)propyl)pyrrolidin-3-yl)amino)methyl)-1-(4-phenyl-3,4-dihydro-2H-benzo[b][1,4]oxazin-6-yl)thieno[2,3-b]pyrazin-2(1H)-one] the same measures were 373 nM, 187 nM and 12.5 µM (≈ 8.9 µg/mL).
For `Nc1nc2sc(CN[C@H]3CCCN(CC(O)(Cn4cncn4)c4ccc(F)cc4F)C3)cc2n(-c2ccc3c(c2)N(c2ccccc2)CCO3)c1=O` (stereo partly drawn) [Compound I-79, 3-amino-6-((((3S)-1-(2-(2,4-difluorophenyl)-2-hydroxy-3-(1H-1,2,4-triazol-1-yl)propyl)piperidin-3-yl)amino)methyl)-1-(4-phenyl-3,4-dihydro-2H-benzo[b][1,4]oxazin-6-yl)thieno[2,3-b]pyrazin-2(1H)-one] the same measures were 1020 nM, 877 nM and 3 µM (≈ 2.18 µg/mL).
For `Nc1nc2sc(CN[C@H]3[C@@H]4CN(CC(O)(Cn5cncn5)c5ccc(F)cc5F)C[C@@H]43)cc2n(-c2ccc3c(c2)N(c2ccccc2)CCO3)c1=O` (stereo partly drawn) [Compound I-81, 3-amino-6-((((1R,5S,6s)-3-(2-(2,4-difluorophenyl)-2-hydroxy-3-(1H-1,2,4-triazol-1-yl)propyl)-3-azabicyclo[3.1.0]hexan-6-yl)amino)methyl)-1-(4-phenyl-3,4-dihydro-2H-benzo[b][1,4]oxazin-6-yl)thieno[2,3-b]pyrazin-2(1H)-one] the same measures were 1040 nM, 825 nM and 2.5 µM (≈ 1.81 µg/mL).
Take `Nc1nc2sc(CNCC(O)(Cn3cncn3)c3ccc(F)cc3F)cc2n(-c2ccc3c(c2)N(c2ccccc2)CCO3)c1=O` (stereo not drawn) [Compound I-82, 3-amino-6-(((2-(2,4-difluorophenyl)-2-hydroxy-3-(1H-1,2,4-triazol-1-yl)propyl)amino)methyl)-1-(4-phenyl-3,4-dihydro-2H-benzo[b][1,4]oxazin-6-yl)thieno[2,3-b]pyrazin-2(1H)-one]: the Kd was determined as 1350 nM in experiment [1] and 826 nM in experiment [2]. Besides, in the experiment on CaCl2, the MIC50 was found to be 1.6 µM (≈ 1.03 µg/mL).
For `CC1(NCc2cc3c(nc(N)c(=O)n3-c3ccc4c(c3)N(c3ccccc3)CCO4)s2)CCN(CC(O)(Cn2cncn2)c2ccc(F)cc2F)CC1` (stereo not drawn) [Compound I-117, 3-amino-6-(((1-(2-(2,4-difluorophenyl)-2-hydroxy-3-(1H-1,2,4-triazol-1-yl)propyl)-4-methylpiperidin-4-yl)amino)methyl)-1-(4-phenyl-3,4-dihydro-2H-benzo[b][1,4]oxazin-6-yl)thieno[2,3-b]pyrazin-2(1H)-one] the same measures were 298 nM, 461 nM and 3 µM (≈ 2.22 µg/mL).
